Test results: patent US20170087174A1, “COMBINATION THERAPY REGIMEN FOR TREATMENT OF HCV” (JANSSEN PHARMACEUTICALS, INC., priority 2015, published 2017)
Read-outs that look alike come from different tables or passages of the source.

Experiments:
[1] = Phase 2a open-label combination study: pharmacokinetics (exposure); format: in vivo, human; details: in vivo
Protocol: A randomized, Phase 2a, open-label study was carried out to evaluate the safety, pharmacokinetics and efficacy of the combination of Compound (III), Odalasvir and Simeprevir in Genotype 1 treatment-naïve subjects with chronic hepatitis C. Other treatment-naïve subjects included Genotype 2, 3, 4, 5 and 6.
The aim of the study was to determine the efficacy, pharmacokinetics (PK), and safety of Compound (III)+Odalasvir±SMV in HCV-infected subjects.
This was an open-label study evaluating various dosing regimens of Compound (III)+Odalasvir±SMV for 6-8 weeks in treatment-naïve HCV-infected subjects with varying clinical characteristics (e.g., GT 1 or 3, presence/absence of compensated Child Pugh A cirrhosis). Efficacy, PK and safety evaluations were conducted during and through 24 weeks post dosing. Up to 15 cohorts were enrolled; data was generated from cohorts that have completed dosing.

[2] = PK of single agents vs fixed dose combinations (FDC), single oral dose in healthy volunteers; format: in vivo, human; details: for Cmax / AUC(0-t) / AUC(0-inf) / Tmax: human, plasma, oral; for Cmax: read-out: Cmax (mean ± SD); for AUC(0-t): read-out: AUClast (mean ± SD); for AUC(0-inf): read-out: AUC∞ (mean ± SD); for Tmax: read-out: tmax (median [range])
Protocol: SMV (100 mg), ODV (50 mg), and Compound (III) (800 mg) were administered as three different formulations or together as single doses in vivo to healthy volunteers. The arms of the study included: • Arm 1 (Reference Arm): Single oral doses of single agents, one SMV 100-mg capsule, one ODV 50-mg tablet as granule layered solid dispersion with copovidone and poloxamers, and two Compound (III) 400-mg tablets, administered together. • Arm 2: Single oral dose of fixed dose combination (FDC02): SMV 100 mg+ODV 50 mg as a spray dried solid dispersion with HPMC-AS L in a ratio ODV/HPMC-AS L 1/1 w/w+Compound (III) 800 mg • Arm 3: Single oral dose of fixed dose combination (FDC04): SMV 100 mg+ODV 50 mg as a spray dried solid dispersion with HPMC-AS L in a ratio ODV/HPMC-AS L 1/3 w/w+Compound (III) 800 mg • Arm 4: Single oral dose of fixed dose combination (FDC01): SMV 100 mg+ODV 50 mg as a spray dried solid dispersion with copovidone and poloxamers+Compound (III) 800 mg
PK parameters, including Cmax, tmax, AUClast, and AUC∞ were measured for Compound (III), ODV, SMV, and metabolites Compound A-I and Compound A-3 for each Arm of the study. Arms that included fixed dose combinations (FDC) (Arm 2, Arm 3, and Arm 4) were then compared to a single oral dose (Arm 1, the reference Arm). Table 9, Table 10, Table 11, Table 12 and Table 13 display relevant PK parameters and FIG. 9, FIG. 10, FIG. 11, FIG. 12, and FIG. 13 depict the plasma concentration over time of SMV, ODV, Compound A-1, and Compound A-3 for each Arm of the study.

[3] = tested on: CYP (cytochrome P450 enzymes); test: CYP inhibition in vitro
[4] = Arm 1 (reference): single agents together
[5] = Arm 2 (FDC02) vs reference (Arm 1)
[6] = Arm 3 (FDC04) vs reference (Arm 1)
[7] = Arm 4 (FDC01) vs reference (Arm 1)
[8] = Arm 1 (reference): single agents together, SMV 100-mg capsule, ODV 50-mg tablet, two Compound (III) 400-mg tablets
[9] = Arm 2: FDC02, SMV 100 mg + ODV 50 mg (ODV/HPMC-AS L 1/1 w/w) + Compound (III) 800 mg
[10] = Arm 3: FDC04, SMV 100 mg + ODV 50 mg (ODV/HPMC-AS L 1/3 w/w) + Compound (III) 800 mg
[11] = Arm 4: FDC01, SMV 100 mg + ODV 50 mg (copovidone and poloxamers) + Compound (III) 800 mg

Row | SMILES | t1/2term (mean ± SD) [2, 4] [h] | Least Square Means Ratio, AUClast [2, 5] [%] | Least Square Means Ratio, Cmax [2, 5] [%] | t1/2term (mean ± SD) ([2]; Arm 2: FDC02) [h] | Least Square Means Ratio, AUClast [2, 6] [%] | Least Square Means Ratio, Cmax [2, 6] [%] | t1/2term (mean ± SD) ([2]; Arm 3: FDC04) [h] | Least Square Means Ratio, AUClast [2, 7] [%] | Least Square Means Ratio, Cmax [2, 7] [%] | t1/2term (mean ± SD) ([2]; Arm 4: FDC01) [h] | Cmax [2, 8] [ng/mL] | AUC(0-t) [2, 4] [ng·h/mL] | AUC(0-inf) [2, 4] [ng·h/mL] | Tmax [2, 4] [h] | Cmax [2, 9] [ng/mL] | AUC(0-t) ([2]; Arm 2: FDC02) [ng·h/mL] | AUC(0-inf) ([2]; Arm 2: FDC02) [ng·h/mL] | Tmax ([2]; Arm 2: FDC02) [h] | Cmax [2, 10] [ng/mL] | AUC(0-t) ([2]; Arm 3: FDC04) [ng·h/mL] | other results
1 | C[C@]1(O)[C@H](n2ccc(=O)[nH]c2=O)O[C@](F)(CO)[C@H]1O [Compound A-1] | 19.6 ± 2.7 | 118.54 | 133.00 | 20.5 ± 3.3 | 121.29 | 119.83 | 20.2 ± 3.5 | 120.45 | 121.37 | 18.3 ± 3.5 | 498 ± 154 | 3910 ± 1150 | 4530 ± 1800 | 4 | 681 ± 268 | 4680 ± 1550 | 4370 ± 1340 | 4 | 598 ± 192 | 4710 ± 1310 | increase of exposure with dose [1]: less than proportionally; AUC(0-inf) ([2]; Arm 3: FDC04): 5380 ± 1560 ng·h/mL; Tmax ([2]; Arm 3: FDC04): 4 h; Cmax [2, 11]: 607 ± 208 ng/mL; AUC(0-t) ([2]; Arm 4: FDC01): 4690 ± 1420 ng·h/mL; AUC(0-inf) ([2]; Arm 4: FDC01): 4560 ± 787 ng·h/mL; Tmax ([2]; Arm 4: FDC01): 4 h; IC50 [3]: > 40 µM
2 | C[C@H](NP(=O)(O)OC[C@@]1(F)O[C@@H](n2ccc(=O)[nH]c2=O)[C@](C)(O)[C@@H]1O)C(=O)O [Compound A-3] | 2.6 ± 1.4 | 103.24 | 102.81 | 2.3 ± 0.6 | 115.78 | 119.82 | 2.9 ± 1.5 | 116.82 | 123.77 | 2.5 ± 0.7 | 163 ± 61.8 | 800 ± 307 | 823 ± 311 | 3 | 163 ± 45.2 | 790 ± 157 | 817 ± 133 | 3 | 189 ± 49.7 | 895 ± 223 | Least Square Means Ratio, AUC∞ [2, 5]: 104.40%; Least Square Means Ratio, AUC∞ [2, 6]: 114.92%; Least Square Means Ratio, AUC∞ [2, 7]: 115.62%; AUC(0-inf) ([2]; Arm 3: FDC04): 914 ± 226 ng·h/mL; Tmax ([2]; Arm 3: FDC04): 3.5 h; Cmax [2, 11]: 197 ± 62.1 ng/mL; AUC(0-t) ([2]; Arm 4: FDC01): 909 ± 244 ng·h/mL; AUC(0-inf) ([2]; Arm 4: FDC01): 926 ± 245 ng·h/mL; Tmax ([2]; Arm 4: FDC01): 4 h; IC50 [3]: > 48 µM
